Results reported in paper PMC6874179, “Development of Macrocycle Kinase Inhibitors for ALK2 Using Fibrodysplasia Ossificans Progressiva‐Derived Endothelial Cells” (JBMR Plus, 2019).

Columns and labels:
Assay in all cases: Proqinase Kinase profiling
Format in all cases: biochemical
Settings in all cases: read-out: % inhibition at 100nM
[1] = molecular target: T1, ADRBK2 (Homo sapiens, UniProt P35626)
T1 construct: purchased DiscoverX

[2] = molecular target: T2, CDK1_cyclinA2 (Homo sapiens, UniProt P06493)
T2 construct: purchased DiscoverX

[3] = molecular target: T3, NEK9 (Homo sapiens, UniProt Q8TD19)
T3 construct: purchased DiscoverX

[4] = molecular target: T4, FGFR1 (Homo sapiens, UniProt P11362)
T4 construct: purchased DiscoverX

[5] = molecular target: T5, BRAF (Homo sapiens, UniProt P15056)
T5 construct: purchased DiscoverX

[6] = molecular target: T6, PRKD3 (Homo sapiens, UniProt O94806)
T6 construct: purchased DiscoverX

[7] = molecular target: T7, CSNK1G3 (Homo sapiens, UniProt Q9Y6M4)
T7 construct: purchased DiscoverX

[8] = molecular target: T8, MET_Y1235D (Homo sapiens, UniProt P08581, Y1235D)
T8 construct: purchased DiscoverX

[9] = molecular target: T9, CSNK2A1 (Homo sapiens, UniProt P68400)
T9 construct: purchased DiscoverX

[10] = molecular target: T10, MAP4K4 (Homo sapiens, UniProt O95819)
T10 construct: purchased DiscoverX

[11] = molecular target: T11, WNK1 (Homo sapiens, UniProt Q9H4A3)
T11 construct: purchased DiscoverX

[12] = molecular target: T12, FLT4 (Homo sapiens, UniProt P35916)
T12 construct: purchased DiscoverX

[13] = molecular target: T13, SGK3 (Homo sapiens, UniProt Q96BR1)
T13 construct: purchased DiscoverX

[14] = molecular target: T14, GRK7 (Homo sapiens, UniProt Q8WTQ7)
T14 construct: purchased DiscoverX

[15] = molecular target: T15, EGFR_L861Q (Homo sapiens, UniProt P00533, L861Q)
T15 construct: purchased DiscoverX

[16] = molecular target: T16, PRKCE (Homo sapiens, UniProt Q02156)
T16 construct: purchased DiscoverX

[17] = molecular target: T17, MAPK3 (Homo sapiens, UniProt P27361)
T17 construct: purchased DiscoverX

[18] = molecular target: T18, CSNK2A2 (Homo sapiens, UniProt P19784)
T18 construct: purchased DiscoverX

[19] = molecular target: T19, RET_M918T (Homo sapiens, UniProt P07949, M918T)
T19 construct: purchased DiscoverX

[20] = molecular target: T20, MAPK9 (Homo sapiens, UniProt P45984)
T20 construct: purchased DiscoverX

[21] = molecular target: T21, MAP2K2 (Homo sapiens, UniProt P36507)
T21 construct: purchased DiscoverX

[22] = molecular target: T22, NEK6 (Homo sapiens, UniProt Q9HC98)
T22 construct: purchased DiscoverX

[23] = molecular target: T23, SGK1 (Homo sapiens, UniProt O00141)
T23 construct: purchased DiscoverX

[24] = molecular target: T24, HIPK4 (Homo sapiens, UniProt Q8NE63)
T24 construct: purchased DiscoverX

[25] = molecular target: T25, ABL1_F317I (Homo sapiens, UniProt P00519, F317I)
T25 construct: purchased DiscoverX

[26] = molecular target: T26, MAPK14 (Homo sapiens, UniProt Q16539)
T26 construct: purchased DiscoverX

[27] = molecular target: T27, PRKG1 (Homo sapiens, UniProt Q13976)
T27 construct: purchased DiscoverX

[28] = molecular target: T28, TGFBR2 (Homo sapiens, UniProt P37173)
T28 construct: purchased DiscoverX

[29] = molecular target: T29, MAP4K5 (Homo sapiens, UniProt Q9Y4K4)
T29 construct: purchased DiscoverX

[30] = molecular target: T30, TAOK2 (Homo sapiens, UniProt Q9UL54)
T30 construct: purchased DiscoverX

[31] = molecular target: T31, ALK_C1156Y (Homo sapiens, UniProt Q9UM73, C1156Y)
T31 construct: purchased DiscoverX

[32] = molecular target: T32, NEK2 (Homo sapiens, UniProt P51955)
T32 construct: purchased DiscoverX

[33] = molecular target: T33, RPS6KB2 (Homo sapiens, UniProt Q9UBS0)
T33 construct: purchased DiscoverX

[34] = molecular target: T34, EGFR_L747-S752del_P753S (Homo sapiens, UniProt P00533, DEL747-752/P753S)
T34 construct: purchased DiscoverX

[35] = molecular target: T35, KDR (Homo sapiens, UniProt P35968)
T35 construct: purchased DiscoverX

[36] = molecular target: T36, EPHA3 (Homo sapiens, UniProt P29320)
T36 construct: purchased DiscoverX

[37] = molecular target: T37, ABL1_G250E (Homo sapiens, UniProt P00519, G250E)
T37 construct: purchased DiscoverX

[38] = molecular target: T38, CDC42BPA (Homo sapiens, UniProt Q5VT25)
T38 construct: purchased DiscoverX

[39] = molecular target: T39, DDR2 (Homo sapiens, UniProt Q16832)
T39 construct: purchased DiscoverX

[40] = molecular target: T40, TNK2 (Homo sapiens, UniProt Q07912)
T40 construct: purchased DiscoverX

[41] = molecular target: T41, BRAF_V600E (Homo sapiens, UniProt P15056, V600E)
T41 construct: purchased DiscoverX

[42] = molecular target: T42, FGFR2 (Homo sapiens, UniProt P21802)
T42 construct: purchased DiscoverX

[43] = molecular target: T43, EGFR_L858R (Homo sapiens, UniProt P00533, L858R)
T43 construct: purchased DiscoverX

T19 sequence (P07949 29-1114 M918T): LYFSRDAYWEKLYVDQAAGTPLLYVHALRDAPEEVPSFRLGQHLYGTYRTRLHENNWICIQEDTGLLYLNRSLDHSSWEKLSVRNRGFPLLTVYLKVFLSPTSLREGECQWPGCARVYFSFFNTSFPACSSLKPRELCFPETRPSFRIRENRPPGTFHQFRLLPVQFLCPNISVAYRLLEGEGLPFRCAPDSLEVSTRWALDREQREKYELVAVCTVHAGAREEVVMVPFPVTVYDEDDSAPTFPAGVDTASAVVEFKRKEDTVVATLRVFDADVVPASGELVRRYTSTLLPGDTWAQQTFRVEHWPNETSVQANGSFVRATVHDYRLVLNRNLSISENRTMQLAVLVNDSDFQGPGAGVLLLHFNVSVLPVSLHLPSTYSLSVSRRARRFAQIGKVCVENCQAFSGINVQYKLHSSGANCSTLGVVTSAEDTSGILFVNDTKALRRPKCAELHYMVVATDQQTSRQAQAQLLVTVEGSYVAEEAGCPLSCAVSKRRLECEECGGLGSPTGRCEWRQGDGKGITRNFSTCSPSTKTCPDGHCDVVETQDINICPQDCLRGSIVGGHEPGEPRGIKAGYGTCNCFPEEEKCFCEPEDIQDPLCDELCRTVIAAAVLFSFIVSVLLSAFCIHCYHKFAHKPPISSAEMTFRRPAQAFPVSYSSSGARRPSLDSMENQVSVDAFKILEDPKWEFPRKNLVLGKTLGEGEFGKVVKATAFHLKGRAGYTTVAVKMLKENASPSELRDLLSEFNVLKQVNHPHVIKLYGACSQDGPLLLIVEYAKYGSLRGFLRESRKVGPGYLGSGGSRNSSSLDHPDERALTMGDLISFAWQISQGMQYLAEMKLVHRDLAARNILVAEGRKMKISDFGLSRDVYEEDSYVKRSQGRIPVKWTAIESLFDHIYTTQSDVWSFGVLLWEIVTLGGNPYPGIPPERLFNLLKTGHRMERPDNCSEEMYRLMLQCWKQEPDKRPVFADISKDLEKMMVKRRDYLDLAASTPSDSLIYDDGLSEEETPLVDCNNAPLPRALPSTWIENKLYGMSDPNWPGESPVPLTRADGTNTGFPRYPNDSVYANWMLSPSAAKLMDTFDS
T7 sequence (Q9Y6M4 whole entry): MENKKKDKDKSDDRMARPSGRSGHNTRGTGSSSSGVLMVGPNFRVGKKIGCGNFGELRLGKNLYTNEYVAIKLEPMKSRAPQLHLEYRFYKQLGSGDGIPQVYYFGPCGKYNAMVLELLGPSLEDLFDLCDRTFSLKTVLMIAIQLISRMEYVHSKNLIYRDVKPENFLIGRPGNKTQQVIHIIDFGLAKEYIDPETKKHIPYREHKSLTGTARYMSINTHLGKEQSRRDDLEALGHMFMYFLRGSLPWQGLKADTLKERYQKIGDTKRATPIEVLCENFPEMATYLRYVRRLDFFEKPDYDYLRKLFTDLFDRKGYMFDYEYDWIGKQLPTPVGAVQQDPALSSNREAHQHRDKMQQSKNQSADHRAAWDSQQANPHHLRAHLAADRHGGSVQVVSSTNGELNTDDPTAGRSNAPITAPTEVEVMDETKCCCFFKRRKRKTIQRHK
T15 sequence (P00533 25-1210 L861Q): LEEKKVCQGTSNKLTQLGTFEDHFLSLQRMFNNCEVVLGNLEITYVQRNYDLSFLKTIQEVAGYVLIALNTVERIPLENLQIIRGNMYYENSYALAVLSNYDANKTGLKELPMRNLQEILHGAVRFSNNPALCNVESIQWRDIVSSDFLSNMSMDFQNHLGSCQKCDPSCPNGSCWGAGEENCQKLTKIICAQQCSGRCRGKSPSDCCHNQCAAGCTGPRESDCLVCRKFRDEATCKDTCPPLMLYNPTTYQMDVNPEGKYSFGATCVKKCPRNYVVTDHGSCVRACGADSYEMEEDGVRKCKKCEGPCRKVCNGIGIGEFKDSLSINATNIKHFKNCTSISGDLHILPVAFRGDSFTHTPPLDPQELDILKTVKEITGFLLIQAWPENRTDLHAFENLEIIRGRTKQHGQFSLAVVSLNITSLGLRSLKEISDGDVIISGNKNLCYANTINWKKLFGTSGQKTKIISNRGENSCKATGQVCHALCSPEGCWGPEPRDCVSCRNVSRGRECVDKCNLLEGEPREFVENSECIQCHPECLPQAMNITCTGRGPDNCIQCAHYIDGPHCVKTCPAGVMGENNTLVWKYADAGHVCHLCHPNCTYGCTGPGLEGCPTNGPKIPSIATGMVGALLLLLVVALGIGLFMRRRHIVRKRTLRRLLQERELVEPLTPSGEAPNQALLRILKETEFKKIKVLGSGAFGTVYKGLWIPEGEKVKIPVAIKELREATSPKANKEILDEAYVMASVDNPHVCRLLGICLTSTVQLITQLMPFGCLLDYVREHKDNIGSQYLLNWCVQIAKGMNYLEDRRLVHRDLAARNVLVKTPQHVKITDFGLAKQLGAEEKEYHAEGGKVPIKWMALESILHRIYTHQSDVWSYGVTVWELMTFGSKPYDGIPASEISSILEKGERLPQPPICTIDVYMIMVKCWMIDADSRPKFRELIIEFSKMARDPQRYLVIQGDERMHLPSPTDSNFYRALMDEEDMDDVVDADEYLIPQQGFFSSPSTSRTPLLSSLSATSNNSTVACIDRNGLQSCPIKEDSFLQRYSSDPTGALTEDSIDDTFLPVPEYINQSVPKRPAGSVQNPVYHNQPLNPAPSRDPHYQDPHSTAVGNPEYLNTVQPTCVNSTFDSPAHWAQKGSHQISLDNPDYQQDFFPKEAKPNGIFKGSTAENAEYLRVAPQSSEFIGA
T10 sequence (O95819 whole entry): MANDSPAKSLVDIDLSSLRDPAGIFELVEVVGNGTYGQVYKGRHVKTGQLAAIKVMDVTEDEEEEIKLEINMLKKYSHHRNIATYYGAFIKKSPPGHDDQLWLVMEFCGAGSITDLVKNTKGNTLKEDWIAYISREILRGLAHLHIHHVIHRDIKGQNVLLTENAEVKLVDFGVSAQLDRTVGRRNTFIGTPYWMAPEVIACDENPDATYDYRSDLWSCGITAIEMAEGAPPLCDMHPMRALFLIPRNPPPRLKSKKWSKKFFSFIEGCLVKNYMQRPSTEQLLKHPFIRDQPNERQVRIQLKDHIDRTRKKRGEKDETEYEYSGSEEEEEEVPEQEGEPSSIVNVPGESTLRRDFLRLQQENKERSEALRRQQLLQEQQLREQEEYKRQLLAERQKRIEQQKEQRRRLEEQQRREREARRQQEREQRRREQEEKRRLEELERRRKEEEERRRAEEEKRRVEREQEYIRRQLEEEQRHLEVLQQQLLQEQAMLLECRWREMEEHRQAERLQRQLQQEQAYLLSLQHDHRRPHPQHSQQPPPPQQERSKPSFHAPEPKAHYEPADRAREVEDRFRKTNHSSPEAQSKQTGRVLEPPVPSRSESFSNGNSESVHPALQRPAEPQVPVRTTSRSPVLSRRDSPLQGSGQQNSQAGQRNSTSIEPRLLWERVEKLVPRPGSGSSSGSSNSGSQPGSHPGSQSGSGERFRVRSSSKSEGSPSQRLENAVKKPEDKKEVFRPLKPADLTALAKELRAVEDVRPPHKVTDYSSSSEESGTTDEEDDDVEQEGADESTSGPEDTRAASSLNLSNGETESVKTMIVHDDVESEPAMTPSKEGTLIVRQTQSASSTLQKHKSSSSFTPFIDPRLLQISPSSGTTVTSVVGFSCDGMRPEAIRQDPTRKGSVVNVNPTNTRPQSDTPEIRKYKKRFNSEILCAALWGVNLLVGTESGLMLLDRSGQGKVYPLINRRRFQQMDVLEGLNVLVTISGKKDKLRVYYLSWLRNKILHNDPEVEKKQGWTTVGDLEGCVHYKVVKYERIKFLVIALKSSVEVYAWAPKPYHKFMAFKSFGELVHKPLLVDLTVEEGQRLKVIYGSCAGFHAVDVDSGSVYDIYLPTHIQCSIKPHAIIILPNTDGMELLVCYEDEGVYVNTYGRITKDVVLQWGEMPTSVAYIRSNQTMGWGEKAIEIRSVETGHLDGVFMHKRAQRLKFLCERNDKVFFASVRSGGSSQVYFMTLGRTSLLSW
T5 sequence (P15056 whole entry): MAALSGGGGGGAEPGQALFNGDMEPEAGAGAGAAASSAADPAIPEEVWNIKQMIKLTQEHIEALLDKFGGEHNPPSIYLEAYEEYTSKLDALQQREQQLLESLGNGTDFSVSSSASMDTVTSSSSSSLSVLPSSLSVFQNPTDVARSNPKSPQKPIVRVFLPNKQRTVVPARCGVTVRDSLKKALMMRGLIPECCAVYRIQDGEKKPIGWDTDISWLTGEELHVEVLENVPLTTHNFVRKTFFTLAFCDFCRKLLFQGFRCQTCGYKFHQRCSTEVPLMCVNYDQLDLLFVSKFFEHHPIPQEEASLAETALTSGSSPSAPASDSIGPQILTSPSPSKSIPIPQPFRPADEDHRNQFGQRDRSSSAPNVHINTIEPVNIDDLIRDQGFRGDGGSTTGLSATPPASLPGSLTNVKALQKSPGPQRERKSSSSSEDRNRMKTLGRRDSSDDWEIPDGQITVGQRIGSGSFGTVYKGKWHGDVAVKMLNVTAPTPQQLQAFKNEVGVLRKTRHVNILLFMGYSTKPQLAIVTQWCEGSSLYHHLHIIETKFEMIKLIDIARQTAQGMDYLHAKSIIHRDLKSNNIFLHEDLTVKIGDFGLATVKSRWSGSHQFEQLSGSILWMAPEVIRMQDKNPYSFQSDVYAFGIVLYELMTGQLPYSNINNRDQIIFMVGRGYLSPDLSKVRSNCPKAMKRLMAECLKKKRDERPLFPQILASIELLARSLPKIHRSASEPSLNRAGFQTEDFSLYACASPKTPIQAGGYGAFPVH
T26 sequence (Q16539 whole entry): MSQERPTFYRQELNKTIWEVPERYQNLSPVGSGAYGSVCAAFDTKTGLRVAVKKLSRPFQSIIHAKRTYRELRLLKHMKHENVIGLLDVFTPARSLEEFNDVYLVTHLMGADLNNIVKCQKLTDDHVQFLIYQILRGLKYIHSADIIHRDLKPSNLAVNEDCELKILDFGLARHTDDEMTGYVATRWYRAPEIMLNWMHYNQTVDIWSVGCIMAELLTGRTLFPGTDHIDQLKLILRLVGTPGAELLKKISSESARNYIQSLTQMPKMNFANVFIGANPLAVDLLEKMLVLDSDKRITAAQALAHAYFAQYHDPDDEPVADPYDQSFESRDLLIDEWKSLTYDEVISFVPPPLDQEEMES

Clc1cc2cc(c1)-c1cnn3ccc(nc13)NCCOCCO2 [OD36]
inhibition at 0.1 µM [1]: 0%
inhibition at 0.1 µM [2]: 11%
inhibition at 0.1 µM [3]: 1%
inhibition at 0.1 µM [4]: 14%
inhibition at 0.1 µM [5]: 20%
inhibition at 0.1 µM [6]: 2%
inhibition at 0.1 µM [7]: 3%
inhibition at 0.1 µM [8]: -5%
inhibition at 0.1 µM [9]: -7%
inhibition at 0.1 µM [10]: 38%
inhibition at 0.1 µM [11]: 18%
inhibition at 0.1 µM [12]: 44%
inhibition at 0.1 µM [13]: 7%
inhibition at 0.1 µM [14]: 6%
inhibition at 0.1 µM [15]: 15%
inhibition at 0.1 µM [16]: -1%
inhibition at 0.1 µM [17]: 12%
inhibition at 0.1 µM [18]: 8%
inhibition at 0.1 µM [19]: 33%
inhibition at 0.1 µM [20]: 12%
inhibition at 0.1 µM [21]: -7%
inhibition at 0.1 µM [22]: -7%
inhibition at 0.1 µM [23]: 16%
inhibition at 0.1 µM [24]: 47%
inhibition at 0.1 µM [25]: 8%
inhibition at 0.1 µM [26]: -4%
inhibition at 0.1 µM [27]: 3%
inhibition at 0.1 µM [28]: 68%
inhibition at 0.1 µM [29]: 18%
inhibition at 0.1 µM [30]: 15%
inhibition at 0.1 µM [31]: 13%
inhibition at 0.1 µM [32]: 0%
inhibition at 0.1 µM [33]: 11%
inhibition at 0.1 µM [34]: 10%
inhibition at 0.1 µM [35]: 32%
inhibition at 0.1 µM [36]: 12%
inhibition at 0.1 µM [37]: 5%
inhibition at 0.1 µM [38]: 15%
inhibition at 0.1 µM [39]: 59%
inhibition at 0.1 µM [40]: 17%
inhibition at 0.1 µM [41]: 10%
inhibition at 0.1 µM [42]: 8%
inhibition at 0.1 µM [43]: 11%

Cc1cc2cc(c1)-c1cnn3ccc(nc13)NCCNC(=O)CCN(C)C2 [OD52]
inhibition at 0.1 µM [1]: -3%
inhibition at 0.1 µM [2]: 1%
inhibition at 0.1 µM [3]: -1%
inhibition at 0.1 µM [4]: 5%
inhibition at 0.1 µM [5]: 16%
inhibition at 0.1 µM [6]: 4%
inhibition at 0.1 µM [7]: 2%
inhibition at 0.1 µM [8]: -15%
inhibition at 0.1 µM [9]: 3%
inhibition at 0.1 µM [10]: 5%
inhibition at 0.1 µM [11]: -2%
inhibition at 0.1 µM [12]: -13%
inhibition at 0.1 µM [13]: 0%
inhibition at 0.1 µM [14]: 12%
inhibition at 0.1 µM [15]: -4%
inhibition at 0.1 µM [16]: -7%
inhibition at 0.1 µM [17]: 1%
inhibition at 0.1 µM [18]: 5%
inhibition at 0.1 µM [19]: 33%
inhibition at 0.1 µM [20]: -5%
inhibition at 0.1 µM [21]: 7%
inhibition at 0.1 µM [22]: -12%
inhibition at 0.1 µM [23]: 22%
inhibition at 0.1 µM [24]: 10%
inhibition at 0.1 µM [25]: -3%
inhibition at 0.1 µM [26]: 1%
inhibition at 0.1 µM [27]: -6%
inhibition at 0.1 µM [28]: 0%
inhibition at 0.1 µM [29]: 19%
inhibition at 0.1 µM [30]: 3%
inhibition at 0.1 µM [31]: -6%
inhibition at 0.1 µM [32]: 3%
inhibition at 0.1 µM [33]: 4%
inhibition at 0.1 µM [34]: -15%
inhibition at 0.1 µM [35]: -14%
inhibition at 0.1 µM [36]: -20%
inhibition at 0.1 µM [37]: 6%
inhibition at 0.1 µM [38]: -4%
inhibition at 0.1 µM [39]: 6%
inhibition at 0.1 µM [40]: -20%
inhibition at 0.1 µM [41]: -1%
inhibition at 0.1 µM [42]: -6%
inhibition at 0.1 µM [43]: -23%
